According to patent publication US10844049B2, “GLP-1R agonists and uses thereof” (QILU REGOR THERAPEUTICS INC., priority 2018, dated 2020):

Molecular target: GLP1R (Homo sapiens, UniProt P43220)
Assay: GLP1R cAMP HTRF assay, HEK293/GLP-1R/CRE/Luc (HEK293T cells)
Assay type: cell-based
Conditions: read-out: EC50
How it was run: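 cAMP accumulation via HTRF after 30 min, 37 °C exposure of 1000 receptor-expressing cells/well to compound (0.5% DMSO final) in IBMX (500 μM)/0.1% BSA DPBS.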

GLP1R, sequence (P43220 24-463): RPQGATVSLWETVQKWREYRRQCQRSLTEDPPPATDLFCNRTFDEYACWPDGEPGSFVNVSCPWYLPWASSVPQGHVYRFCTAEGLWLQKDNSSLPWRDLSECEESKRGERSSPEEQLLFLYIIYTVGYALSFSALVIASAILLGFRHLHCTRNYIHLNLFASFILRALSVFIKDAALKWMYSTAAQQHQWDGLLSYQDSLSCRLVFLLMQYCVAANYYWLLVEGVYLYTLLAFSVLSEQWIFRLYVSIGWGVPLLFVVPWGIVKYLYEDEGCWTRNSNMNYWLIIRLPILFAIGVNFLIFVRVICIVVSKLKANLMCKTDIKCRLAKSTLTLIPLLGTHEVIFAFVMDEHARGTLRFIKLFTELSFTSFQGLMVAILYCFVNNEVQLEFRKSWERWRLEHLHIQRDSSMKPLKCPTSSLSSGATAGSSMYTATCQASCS

SMILES	EC50 [nM]
O=C(O)c1ccc2nc(CN3CC=C(c4cccc(OCc5ccccc5)n4)CC3)n(C[C@@H]3CCO3)c2c1 [Compound 73, (S)-2-((6-(benzyloxy)-5′,6′-dihydro-[2,4′-bipyridin]-1′(2′H)-yl)methyl)-1-(oxetan-2-ylmethyl)-1H-benzo[d]imidazole-6-carboxylic add]	≤ 150
O=C(O)c1ccc2nc(CN3CC=C(c4ccc5c(n4)N(CCc4cccc(Cl)c4)CCO5)CC3)n(C[C@@H]3CCO3)c2c1 [Compound 37, (S)-2-((4-(4-(3-chlorophenethyl)-3,4-dihydro-2 h-pyrido[3,2-b][1,4]oxazin-6-yl)-5,6-dihydropyridin-1(2H)-yl)methyl)-1-(oxetan-2-ylmethyl)-1 h-benzo[d]imidazole-6-carboxylic acid]	> 1000
O=C(O)c1ccc2nc(CN3CC=C(c4ccnc(OCc5ccc(C(F)(F)F)nc5)n4)CC3)n(C[C@@H]3CCO3)c2c1 [Compound 219, (S)-1-(oxetan-2-ylmethyl)-2-((4-(2-((6-(trifluoromethyl)pyridin-3-yl)methoxy)pyrimidin-4-yl)-5,6-dihydropyridin-1(2H)-yl)methyl)-1H-benzo[d]imidazole-6-carboxylic acid]	≤ 1000
O=c1[nH]c(-c2ccc3nc(CN4CC=C(c5cccc(OCc6ccc(Cl)cc6F)n5)CC4)n(C[C@@H]4CCO4)c3c2)no1 [Compound 62, (S)-3-(2-((4-(6-(4-chloro-2-fluorobenzyloxy)pyridin-2-yl)-5,6-dihydropyridin-1(2H)-yl)methyl)-1-(oxetan-2-ylmethyl)-1H-benzo[d]imidazol-6-yl)-1,2,4-oxadiazol-5(4H)-one]	≤ 150
O=C(O)c1ccc2nc(CN3CC=C(c4cccc(OCc5ccc(C#CC6CC6)cc5F)n4)CC3)n(C[C@@H]3CCO3)c2c1 [Compound 108, (S)-2-((6-((4-(cyclopropylethynyl)-2-fluorobenzyl)oxy)-3′,6′-dihydro-[2,4′-bipyridin]-1′(2′H)-yl)methyl)-1-(oxetan-2-ylmethyl)-1H-benzo[d]imidazole-6-carboxylic acid]	≤ 15
O=C(O)c1ccc2nc(CN3CC=C(c4cc(OCc5ccc(C#CC6CC6)cc5F)ccc4F)CC3)n(C[C@@H]3CCO3)c2c1 [Compound 208]	≤ 150
O=C(O)c1ccc2nc(CN3CCN(c4cc(OCc5ccc(C#CC6CC6)cc5F)ccc4F)CC3)n(C[C@@H]3CCO3)c2c1 [Compound 198, (S)-2-((4-(5-((4-(cyclopropylethynyl)-2-fluorobenzyl)oxy)-2-fluorophenyl)piperazin-1-yl)methyl)-1-(oxetan-2-ylmethyl)-1H-benzo[d]imidazole-6-carboxylic acid]	≤ 1000
O=C(O)c1ccc2nc(CN3CCN(c4cccc(OCc5ccc(C(F)(F)F)cc5)c4)CC3)n(C[C@@H]3CCO3)c2c1 [Compound 189]	≤ 150
N#Cc1ccc(COc2cccc(N3CCN(Cc4nc5ccc(C(=O)O)cc5n4C[C@@H]4CCO4)CC3)c2)c(F)c1 [Compound 193, (S)-2-((4-(3-(4-cyano-2-fluorobenzyloxy)phenyl)piperazin-1-yl)methyl)-1-(oxetan-2-ylmethyl)-1H-benzo[d]imidazole-6-carboxylic acid]	≤ 150
O=C(O)c1ccc2nc(CN3CCC(n4c(=O)n(CCc5ccc(Cl)cc5F)c5ccccc54)CC3)n(C[C@@H]3CCO3)c2c1 [Compound 52, (S)-2-((4-(3-(4-chloro-2-fluorophenethyl)-2-oxo-2,3-dihydro-1 h-benzo[d]imidazol-1-yl)piperidin-1-yl)methyl)-1-(oxetan-2-ylmethyl)-1 h-benzo[d]imidazole-6-carboxylic acid]	> 1000
O=C(O)c1ccc2nc(CN3CCC(c4ccc5ccn(Cc6ccc(Cl)cc6F)c5c4)CC3)n(C[C@@H]3CCO3)c2c1 [Compound 26, (S)-2-((4-(1-(4-chloro-2-fluorobenzyl)-1 h-indol-6-yl)piperidin-1-yl)methyl)-1-(oxetan-2-ylmethyl)-1 h-benzo[d]imidazole-6-carboxylic acid]	> 1000
O=C(O)c1ccc2nc(CN3CCN(c4cc(OCc5ccc(Cl)cc5F)ccc4F)CC3)n(C[C@@H]3CCO3)c2c1 [Compound 186, (S)-2-((4-(5-(4-chloro-2-fluorobenzyloxy)-2-fluorophenyl)piperazin-1-yl)methyl)-1-(oxetan-2-ylmethyl)-1H-benzo[d]imidazole-6-carboxylic acid]	≤ 150
O=C(O)c1ccc2nc(CN3CCN(c4ccc5ccn(Cc6ccc(Cl)cc6F)c5n4)CC3)n(C[C@@H]3CCO3)c2c1 [Compound 13, (S)-2-((4-(1-(4-chloro-2-fluorobenzyl)-1 h-pyrrolo[2,3-b]pyridin-6-yl)piperazin-1-yl)methyl)-1-(oxetan-2-ylmethyl)-1 h-benzo[d]imidazole-6-carboxylic add]	≤ 150

The next lines start with the values.

EC50 [nM]	SMILES
≤ 1000	O=C(O)c1ccc2nc(CN3CC=C(c4ccc(F)c(OCc5ccc(Cl)cc5F)c4F)CC3)n(C[C@@H]3CCO3)c2c1 [Compound 63, (S)-2-((4-(3-(4-chloro-2-fluorobenzyloxy)-2,4-difluorophenyl)-5,6-dihydropyridin-1(2H)-yl)methyl)-1-(oxetan-2-ylmethyl)-1H-benzo[d]imidazole-6-carboxylic acid]
≤ 15	N#Cc1ccc(COc2cc(N3CCN(Cc4nc5ccc(C(=O)O)cc5n4C[C@@H]4CCO4)CC3)ccc2F)c(F)c1 [Compound 195, (S)-2-((4-(3-((4-cyano-2-fluorobenzyl)oxy)-4-fluorophenyl)piperazin-1-yl)methyl)-1-(oxetan-2-ylmethyl)-1H-benzo[d]imidazole-6-carboxylic add]
≤ 150	O=C(O)c1ccc2nc(CN3CC=C(c4cccc(OCc5cccc(F)c5)n4)CC3)n(C[C@@H]3CCO3)c2c1 [Compound 156, (S)-2-((6-((3-fluorobenzyl)oxy)-3′,6′-dihydro-[2,4′-bipyridin]-1′(2′H)-yl)methyl)-1-(oxetan-2-ylmethyl)-1H-benzo[d]imidazole-6-carboxylic add]
≤ 15	COc1ccc(COc2cccc(C3=CCN(Cc4nc5ccc(C(=O)O)cc5n4C[C@@H]4CCO4)CC3)n2)cc1 [Compound 118, (S)-2-((6-((4-methoxybenzyl)oxy)-3′,6′-dihydro-[2,4′-bipyridin]-1′(2H)-yl)methyl)-1-(oxetan-2-ylmethyl)-1H-benzo[d]imidazole-6-carboxylic acid]
≤ 150	O=C(O)c1ccc2nc(CN3CC=C(c4cccc(CCc5ccc(Cl)cc5F)n4)CC3)n(C[C@@H]3CCO3)c2c1 [Compound 113, (S)-2-((6-(4-chloro-2-fluorophenethyl)-3′,6′-dihydro-[2,4′-bipyridin]-1′(2′H)-yl)methyl)-1-(oxetan-2-ylmethyl)-1H-benzo[d]imidazole-6-carboxylic acid]
≤ 15	O=C(O)c1ccc2nc(CN3CC=C(c4cccc(OCc5ccc(Cl)cc5)n4)CC3)n(C[C@@H]3CCO3)c2c1 [Compound 44, (S)-2-((6-((4-chlorobenzyl)oxy)-3′,6′-dihydro-[2,4′-bipyridin]-1′(2′H)-yl)methyl)-1-(oxetan-2-ylmethyl)-1H-benzo[d]imidazole-6-carboxylic acid]
≤ 15	O=C(O)c1ccc2nc(CN3CC=C(c4nccc(OCc5ccc(Cl)cc5F)n4)CC3)n(C[C@@H]3CCO3)c2c1 [Compound 33, (S)-2-((4-(4-(4-chloro-2-fluorobenzyloxy)pyrimidin-2-yl)-5,6-dihydropyridin-1(2H)-yl)methyl)-1-(oxetan-2-ylmethyl)-1 h-benzo[d]imidazole-6-carboxylic acid]
≤ 15	O=C(O)c1ccc2nc(CN3CC=C(c4cc(F)c(F)c(OCc5ccc(Cl)cc5F)c4)CC3)n(C[C@@H]3CCO3)c2c1 [Compound 41, (S)-2-((4-(3-(4-chloro-2-fluorobenzyloxy)-4,5-difluorophenyl)-5,6-dihydropyridin-1(2H)-yl)methyl)-1-(oxetan-2-ylmethyl)-1 h-benzo[d]imidazole-6-carboxylic acid]
≤ 15	O=C(O)c1ccc2nc(CN3CCN(c4cc(F)cc(OCc5ccc(Cl)cc5F)c4)CC3)n(C[C@@H]3CCO3)c2c1 [Compound 185, (S)-2-((4-(3-((4-chloro-2-fluorobenzyl)oxy)-5-fluorophenyl)piperazin-1-yl)methyl)-1-(oxetan-2-ylmethyl)-1H-benzo[d]imidazole-6-carboxylic acid]
≤ 1000	O=C(O)c1ccc2nc(CN3CC=C(c4cccc(NC5CCCc6cc(Cl)ccc65)n4)CC3)n(C[C@@H]3CCO3)c2c1 (stereo partly drawn) [Compound 104, 2-((6-((6-chloro-1,2,3,4-tetrahydronaphthalen-1-yl)amino)-36′-dihydro-[2,4′-bipyridin]-1′(2′H)-yl)methyl)-1-(((S)-oxetan-2-yl)methyl)-1H-benzo[d]imidazole-6-carboxylic add]
≤ 1000	O=C(O)c1ccc2nc(CN3CCC(=O)N(c4cccc(OCc5ccc(Cl)cc5F)n4)CC3)n(C[C@@H]3CCO3)c2c1 [Compound 57]
≤ 15	N#Cc1ccc(COc2ccc(F)c(C3=CCN(Cc4nc5ccc(C(=O)O)cc5n4C[C@@H]4CCO4)CC3)n2)c(F)c1 [Compound 223, (S)-2-((6-((4-cyano-2-fluorobenzyl)oxy)-3-fluoro-3′,6′-dihydro-[2,4′-bipyridin]-1(2′H)-yl)methyl)-1-(oxetan-2-ylmethyl)-1H-benzo[d]imidazole-6-carboxylic acid]
> 1000	O=C(O)c1ccc2nc(CN3CCN(c4ccc(=O)n(Cc5ccc(Cl)cc5F)n4)CC3)n(C[C@@H]3CCO3)c2c1 [Compound 7, (S)-2-((4-(1-(4-chloro-2-fluorobenzyl)-6-oxo-1,6-dihydropyridazin-3-yl)piperazin-1-yl)methyl)-1-(oxetan-2-ylmethyl)-1 h-benzo[d]imidazole-6-carboxylic acid]
≤ 15	CCn1cncc1Cn1c(CN2CC=C(c3cccc(OCc4ccc(C#N)cc4F)n3)CC2)nc2ccc(C(=O)O)cc21 [Compound 182, 2-((6-((4-cyano-2-fluorobenzyl)oxy)-3′,6′-dihydro-[2,4′-bipyridin]-1′(2′H)-yl)methyl)-1-((1-ethyl-1H-imidazol-5-yl)methyl)-1H-benzo[d]imidazole-6-carboxylic acid]
